Article PMC6116703, “Ethenesulfonyl fluoride derivatives as telomerase inhibitors: structure-based design, SAR, and anticancer evaluation in vitro” (Journal of Enzyme Inhibition and Medicinal Chemistry, 2018)
Where two headings read alike, the source gives them in different places.

How the values were obtained:
[1] = test system: human normal liver cell (L-02); test: Proliferative inhibition assay of human normal cell L-02 (MTT); assay type: cell-based; settings: Homo sapiens, normal liver cells
Description: (§1) The antiproliferative activities evaluation was conducted by using a modified procedure as described in the literature. Briefly, target tumour cells were grown to log phase in RPMI 1640 medium supplemented with 10% fetal bovine serum. After diluting to 3 × 10^4 cells mL^−1 with the complete medium, 100 µL of the obtained cell suspension was added to each well of 96-well culture plates. The subsequent incubation was performed at 37 °C, 5% CO2 atmosphere for 24 h before subjecting to antiproliferation assessment. The tested samples at pre-set concentrations were added to six wells with Doxorubicin (AMD) co-assayed as a positive reference. After 48 h of exposure period, 25 µL of PBS containing 2.5 mg·mL^−1 of MTT was added to each well. After 4 h, the medium was replaced by 150 µL DMSO to dissolve the purple formazan crystals produced. The absorbance at 570 nm of each well was measured using an ELISA plate reader. The data represented the mean of three experiments in triplicate and were expressed as means ± SD using Student’s test.
(§2) In order to determine the selective cancer cell toxicity of some title compounds. We subsequently conducted a proliferative inhibition assay with human normal liver cell (L-02) and gastric mucosa cell (GES-1).

[2] = test system: gastric mucosa cell (GES-1); test: Proliferative inhibition assay of human normal cell GES-1 (MTT); assay type: cell-based; settings: Homo sapiens, GES1, normal gastric mucosa cells
Description: as §1, §2

telomerase = target: T1, telomerase (Homo sapiens, UniProt O14746); test: Telomerase activity TRAP-PCR-ELISA assay (A375 cell extract); assay type: biochemical
T1 construct: endogenous in cells; host or cells: A375 human melanoma cells
Description: Thirty-six compounds were tested in a search for inhibitors of telomerase activity using the TRAP-PCR-ELISA assay. In detail, the A375 cells were firstly maintained in RPMI 1640 buffer (Hyclone, Miami, FL), supplemented with 10% fetal bovineserum (GIBCO, New York, NY), streptomycin (0.1 mg/mL) and penicillin (100 IU/mL) at 37 °C in a humidified atmosphere containing 5% CO2. After trypsinisation, 5 × 10^4 cultured cells in logarithmic growth were seeded into T25 flasks (Corning, New York, NY) and cultured to allow to adherence. […] After 24 h treatment, the cells were harvested by cell scraper orderly followed by washing once with PBS. The cells were lysed in 150 µL RIPA cell lysis buffer (Santa Cruz, Santa Cruz, CA), and incubated on ice for 30 min. The cellular supernatants were obtained via centrifugation at 12,000g for 20 min at 4 °C and stored at –80 °C. The TRAP-PCR-ELISA assay was performed using a telomerase detection kit (Roche, Basel, Switzerland) according to the manufacturer’s protocol. In brief, 2 µL of cell extracts were mixed with 48 µL TRAP reaction mixtures. TRAP primers and Taq polymerase are incubated at 25 °C for 30 min. PCR was then initiated at 94 °C, 120 s for predenaturation and performed using 35 cycles each consisting of 94 °C for 30 s, 50 °C for 30 s, 72 °C for 90 s. Then 20 µL of PCR products were hybridised to a digoxigenin (DIG)-labelled telomeric repeat specific detection probe. And the PCR products were immobilised via the biotin-labelled primer to a streptavidin-coated microtiter plate subsequently. The immobilised DNA fragments were detected with a peroxidase-conjugated anti-DIG antibody and visualised following the addition of the stop regent. The microtitre plate was assessed on TECAN Infinite M200 microplate reader (Mannedorf, Switzerland) at a wavelength of 490 nm, and the final value were presented as mean ± SD[23].

human melanoma cell A375 = test: Cell proliferation (MTT) assay, A375; assay type: cell-based
Description: as §1

[3] = test system: human breast cancer cell MDA-MB-231; test: Cell proliferation (MTT) assay, MDA-MB-231; assay type: cell-based
Description: as §1

[4] = test system: human hepatoma cell SMMC-7721; test: Cell proliferation (MTT) assay, SMMC-7721; assay type: cell-based; settings: read-out: IC50 SMMC-7721
Description: as §1

[5] = test system: human gastric cancer cells MGC-803; test: Cell proliferation (MTT) assay, MGC-803; assay type: cell-based; settings: Homo sapiens, MGC-803, 48 h, read-out: IC50 MGC-803
Description: as §1

[6] = test system: human gastric cancer cells SGC-7901; test: Cell proliferation (MTT) assay, SGC-7901; assay type: cell-based; settings: read-out: IC50 SGC-7901
Description: as §1

[7] = Homo sapiens, A-375, 48 h, read-out: IC50 A375, antiproliferative, MTT, 48 h exposure
[8] = Homo sapiens, MDA-MB-231, 48 h, read-out: IC50 MDA-MB-231, antiproliferative, MTT, 48 h exposure
[9] = IC50 inhibitory activity against telomerase, TRAP-PCR-ELISA, A375 cells, 24 h treatment
[10] = antiproliferative, MTT, 48 h exposure, read-out: IC50 A375
[11] = antiproliferative, MTT, 48 h exposure, read-out: IC50 MDA-MB-231
[12] = antiproliferative, MTT, 48 h exposure

T1 sequence (O14746 whole entry): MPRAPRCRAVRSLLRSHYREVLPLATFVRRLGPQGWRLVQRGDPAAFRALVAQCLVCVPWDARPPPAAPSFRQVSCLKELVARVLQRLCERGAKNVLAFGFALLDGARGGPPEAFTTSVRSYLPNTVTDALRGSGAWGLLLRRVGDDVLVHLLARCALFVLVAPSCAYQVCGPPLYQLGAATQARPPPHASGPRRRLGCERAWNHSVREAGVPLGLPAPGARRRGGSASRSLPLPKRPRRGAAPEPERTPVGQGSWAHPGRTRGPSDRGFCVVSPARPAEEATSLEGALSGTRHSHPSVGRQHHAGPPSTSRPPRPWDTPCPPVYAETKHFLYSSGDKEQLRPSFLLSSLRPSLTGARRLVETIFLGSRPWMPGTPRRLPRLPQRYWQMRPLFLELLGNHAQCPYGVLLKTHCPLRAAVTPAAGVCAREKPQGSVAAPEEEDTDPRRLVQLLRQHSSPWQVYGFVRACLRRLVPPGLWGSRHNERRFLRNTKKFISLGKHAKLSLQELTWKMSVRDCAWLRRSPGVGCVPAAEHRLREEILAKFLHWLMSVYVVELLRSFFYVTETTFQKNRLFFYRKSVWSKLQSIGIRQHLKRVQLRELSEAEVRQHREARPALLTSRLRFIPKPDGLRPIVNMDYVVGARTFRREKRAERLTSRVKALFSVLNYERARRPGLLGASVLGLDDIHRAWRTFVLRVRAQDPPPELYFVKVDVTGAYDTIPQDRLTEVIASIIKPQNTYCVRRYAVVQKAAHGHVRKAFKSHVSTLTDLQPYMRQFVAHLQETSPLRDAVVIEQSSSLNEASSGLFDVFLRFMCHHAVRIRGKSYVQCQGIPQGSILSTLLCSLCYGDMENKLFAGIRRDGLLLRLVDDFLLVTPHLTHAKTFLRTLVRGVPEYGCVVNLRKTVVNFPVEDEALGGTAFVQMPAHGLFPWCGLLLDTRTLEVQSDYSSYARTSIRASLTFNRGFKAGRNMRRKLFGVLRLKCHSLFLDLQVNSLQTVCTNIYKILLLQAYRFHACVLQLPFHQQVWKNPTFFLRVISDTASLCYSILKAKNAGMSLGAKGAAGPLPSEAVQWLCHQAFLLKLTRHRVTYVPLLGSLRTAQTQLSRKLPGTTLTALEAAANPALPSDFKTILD

| Structure (SMILES) | IC50 [1] [µM] | IC50 [2] [µM] | IC50 (human melanoma cell A375; [7]) [µM] | IC50 [3, 8] [µM] | IC50 ([4]; Homo sapiens, SMMC-7721, 48 h) [µM] | IC50 [5] [µM] | IC50 (telomerase; [9]) [µM] | also measured |
| --- | --- | --- | --- | --- | --- | --- | --- | --- |
| CC(=O)c1ccccc1/C=C/S(=O)(=O)F [Compound 25] | 2450 ± 250 | 2800 ± 310 | – | – | – | – | – | IC50 inhibitory activity against telomerase (telomerase; TRAP-PCR-ELISA, A375 cells, 24 h treatment): no |
| COc1ccc(Cl)cc1/C=C/S(=O)(=O)F [Compound 71] | – | – | 8.65 ± 0.33 | 8.09 ± 0.52 | 23.2 ± 0.78 | 20.8 ± 0.79 | 6.08 ± 1.3 | – |
| COc1cc(/C=C/C=C/S(=O)(=O)F)cc(OC)c1 [Compound 56] | – | – | 6.92 ± 0.44 | 12.2 ± 0.92 | 19.3 ± 0.82 | – | 3.2 ± 0.55 | IC50 ([6]; Homo sapiens, SGC-7901, 48 h): 34.5 ± 1.04 µM |
| O=S(=O)(F)/C=C/c1ccc2ccccc2c1 [Compound 31] | 1410 ± 100 | 1650 ± 180 | ~3 | 24.1 ± 1.18 | 33.5 ± 0.88 | – | 0.81 ± 0.07 | IC50 (human melanoma cell A375; read-out: IC50 A375, antiproliferative, MTT, 48 h exposure): 3.49 ± 0.2 µM |
| O=S(=O)(F)/C=C/c1ccc(Cl)cc1 [Compound 7] | – | – | 9.84 ± 0.78 | 12.3 ± 0.64 | 13.3 ± 0.39 | 12.9 ± 0.3 | 3.02 ± 0.44 | – |
| O=S(=O)(F)/C=C/c1ccc(-c2ccccc2)cc1 [Compound 5] | 1330 ± 150 | 2000 ± 250 | 5.84 ± 0.33 | 8.39 ± 0.89 | 4.05 ± 0.2 | – | 0.71 ± 0.28 | IC50 ([6]; Homo sapiens, SGC-7901, 48 h): 32.9 ± 1.85 µM; telomerase potency relative to positive control staurosporine (telomerase; ratio of telomerase IC50 values vs staurosporine): 12 times |
| O=S(=O)(F)/C=C/c1cccc(-c2ccccc2)c1 [Compound 75] | 2440 ± 220 | 1890 ± 170 | 9.27 ± 0.91 | 21.3 ± 1.04 | 32.1 ± 1.02 | – | 4.4 ± 2 | IC50 ([6]; Homo sapiens, SGC-7901, 48 h): 21.9 ± 0.61 µM |
| Cc1ccc(S(=O)(=O)n2c3ccccc3c3cc(/C=C/S(=O)(=O)F)ccc32)cc1 [Compound 46] | 2060 ± 180 | 1820 ± 110 | 1.25 ± 0.07 | – | 5.37 ± 0.11 | – | – | IC50 (telomerase; read-out: IC50 inhibitory activity against telomerase, TRAP-PCR-ELISA, A375 cells, 24 h treatment): 1.12 ± 0.27 µM |
| O=Cc1ccc(/C=C/S(=O)(=O)F)cc1 [Compound 15] | 2110 ± 190 | 2500 ± 220 | 13.1 ± 0.7 | 3.64 ± 0.22 | – | – | 1.87 ± 0.41 | – |
| COc1cc(/C=C/S(=O)(=O)F)cc(OC)c1 [Compound 67] | – | – | 8.29 ± 0.42 | 12.1 ± 0.37 | 15 ± 0.6 | 16.1 ± 0.82 | 1.87 ± 0.47 | IC50 ([6]; Homo sapiens, SGC-7901, 48 h): 50.3 ± 1.17 µM |
| O=S(=O)(F)/C=C/c1ccc(F)cc1 [Compound 6] | – | – | 5.99 ± 0.49 | – | 15.9 ± 0.35 | 44.2 ± 1.25 | 2.98 ± 0.59 | IC50 ([3]; read-out: IC50 MDA-MB-231, antiproliferative, MTT, 48 h exposure): 9.2 ± 1.27 µM |
| O=S(=O)(F)/C=C/c1ccc(Br)cc1 [Compound 8] | – | – | 9.12 ± 0.82 | 17.5 ± 1.77 | 10.7 ± 0.8 | 17.2 ± 0.41 | 4.33 ± 0.77 | – |
| Cc1ccc(/C=C/C=C/S(=O)(=O)F)cc1 [Compound 49] | – | – | – | – | – | – | – | IC50 (human melanoma cell A375; [10]): 32.8 ± 1.44 µM; IC50 [3, 11]: 35.2 ± 1.4 µM; IC50 [4, 12]: 48.5 ± 1.65 µM; IC50 [6, 12]: 49.79 ± 0.47 µM |
| O=S(=O)(F)/C=C/c1ccccc1Br [Compound 76] | – | – | – | – | – | – | – | IC50 (human melanoma cell A375; [10]): 18 ± 1.09 µM; IC50 [3, 11]: 36 ± 1.2 µM; IC50 [6, 12]: 50.2 ± 1.79 µM |
